pKi: −log10 of the molar value.
Key:
[1] = biological target: Kappa-type opioid receptor (Cavia porcellus, UniProt P41144); experiment: Binding affinity towards opioid receptor kappa 1
Mu-type opioid receptor [2] = biological target: T1, Mu-type opioid receptor (Bos taurus, UniProt P79350); experiment: Binding affinity towards opioid receptor mu 2
Mu-type opioid receptor [3] = biological target: T1, Mu-type opioid receptor; experiment: Binding affinity towards opioid receptor mu 1
Mus musculus = experiment: Antinociceptive activity displayed after pretreatment with selective opioid antagonist beta-FNA([…], sc); assay type: functional

Sequence of Kappa-type opioid receptor (P41144 whole entry): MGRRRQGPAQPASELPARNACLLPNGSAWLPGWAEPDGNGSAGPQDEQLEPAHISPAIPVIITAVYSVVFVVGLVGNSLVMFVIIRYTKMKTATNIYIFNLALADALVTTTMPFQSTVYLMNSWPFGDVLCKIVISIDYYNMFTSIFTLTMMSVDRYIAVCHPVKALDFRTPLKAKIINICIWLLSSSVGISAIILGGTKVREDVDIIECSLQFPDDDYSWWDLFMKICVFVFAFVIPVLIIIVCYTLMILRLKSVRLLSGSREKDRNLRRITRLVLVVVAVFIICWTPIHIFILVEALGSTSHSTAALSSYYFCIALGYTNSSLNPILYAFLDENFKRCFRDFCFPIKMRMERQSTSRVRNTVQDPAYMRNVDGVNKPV
T1 sequence (P79350 whole entry): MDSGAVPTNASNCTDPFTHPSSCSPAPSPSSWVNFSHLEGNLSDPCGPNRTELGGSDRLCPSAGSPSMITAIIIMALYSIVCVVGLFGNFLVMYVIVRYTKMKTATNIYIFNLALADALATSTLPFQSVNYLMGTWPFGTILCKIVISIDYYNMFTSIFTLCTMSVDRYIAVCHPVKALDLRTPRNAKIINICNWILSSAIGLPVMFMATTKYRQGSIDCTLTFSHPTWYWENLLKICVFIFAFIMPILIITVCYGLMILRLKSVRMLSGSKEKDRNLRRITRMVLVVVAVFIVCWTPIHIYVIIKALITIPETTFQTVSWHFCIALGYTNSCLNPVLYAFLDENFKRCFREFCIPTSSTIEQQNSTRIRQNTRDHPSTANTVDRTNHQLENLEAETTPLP

CN1CCC2(c3cccc(O)c3)CCCC1[C@@H]2O (mixture of isomers)
pKi [1]: < 6.30
pKi (Mu-type opioid receptor [2]): < 6.56
pKi (Mu-type opioid receptor [3]): 7.12

C[C@@H]1C2CCCC1(c1cccc(O)c1)CCN2C (single isomer, unassigned; (+))
pKi [1]: 7.05
pKi (Mu-type opioid receptor [2]): < 6.22
pKi (Mu-type opioid receptor [3]): 6.85

CN1CCC2(c3cccc(O)c3)CCCC1C2 (single isomer, unassigned; (-))
pKi [1]: 6.70
pKi (Mu-type opioid receptor [2]): 7.20
pKi (Mu-type opioid receptor [3]): 7.89

C[C@@H]1C2CCCC1(c1cccc(O)c1)CCN2C (single isomer, unassigned; (-))
pKi [1]: 7.31
pKi (Mu-type opioid receptor [2]): 7.30
pKi (Mu-type opioid receptor [3]): 7.74

CN1CCC2(c3cccc(O)c3)CCCC1[C@H]2O (mixture of isomers)
pKi [1]: 6.96
pKi (Mu-type opioid receptor [2]): 7.55
pKi (Mu-type opioid receptor [3]): 8.06

CN1CCC2(c3cccc(O)c3)CCCC1C2 (single isomer, unassigned; (+))
pKi [1]: 7.01
pKi (Mu-type opioid receptor [2]): 7.72
pKi (Mu-type opioid receptor [3]): 8.47
Animals (Mus musculus): 0%

C[C@@H]1C2CCCC1(c1cccc(O)c1)CCN2C (mixture of isomers)
pKi [1]: 7.15
pKi (Mu-type opioid receptor [2]): 6.72
pKi (Mu-type opioid receptor [3]): 7.34

CC1(C)SSC(C)(C)[C@@H](NC(=O)[C@@H](N)Cc2ccc(O)cc2)C(=O)NCC(=O)N[C@@H](Cc2ccccc2)C(=O)N[C@H]1C(=O)O
pKi (Mu-type opioid receptor [2]): 6.34
pKi (Mu-type opioid receptor [3]): 7.09
